Laboratory results reported in PubChem BioAssay AID342 (DTP/NCI, 2004).
Several values for one entry are separate records, joined by “and”; a condition that tells them apart may be missing. Equal entries are not always repeated.

Test system: Swiss mice, Sarcoma 180 sc, mean tumor weight T/C
Test: NCI In Vivo Anticancer Drug Screen. Data for tumor model Sarcoma 180 (subcutaneous) in Swiss mice
Conditions: endpoint: mean tumor weight, higher = larger tumour
Outline: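 Readout is the ratio of treated-group measurement to vehicle-control measurement (T/C), based on survival or tumor size in mice carrying transplanted tumors.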

Q: Which T/C (dose: 1:40.0 dilution, schedule: Q01DX007 (ip), vehicle: water) does the source give for `CC(=O)OC1(C)CC(C)C(=O)C(C(O)CC2CC(=O)NC(=O)C2)C1` (stereo not given) here?
A: 122 % of control

Q: And the T/C (dose: 1:2000.0 dilution, schedule: Q01DX007 (ip), vehicle: water)?
A: 79 % of control and 92 % of control

Q: What about the T/C (dose: 1:4000.0 dilution, schedule: Q01DX007 (ip), vehicle: water) of the same molecule?
A: 49 % of control

Q: `COc1ccc2c3c(c4cc(OC)c(OC)cc4c2c1)C[C@H]1CCCCN1C3` was tested. Which T/C (dose: 0.5 mg/kg/injection, schedule: Q01DX007 (ip), vehicle: carboxymethylcellulose (CMC)) did it give?
A: 82 % of control

Q: What about the T/C (dose: 1.0 mg/kg/injection, schedule: Q01DX007 (ip), vehicle: carboxymethylcellulose (CMC)) of the same molecule?
A: 65 % of control

Q: For `CC1=C(/C=C/C(C)=N/NC(N)=S)C(C)(C)CCC1`, which T/C (dose: 20.0 mg/kg/injection, schedule: Q01DX007 (ip), vehicle: other) is on record?
A: 48 % of control and 66 % of control

Q: With `Nc1nc2n[nH]nc2c(=O)[nH]1` as the molecule, how does the T/C (dose: 12.5 mg/kg/injection, schedule: Q01DX007 (ip), vehicle: other) read?
A: 118 % of control

Q: What about the T/C (dose: 12.5 mg/kg/injection, schedule: Q#A X014 (ip), vehicle: other) of the same molecule?
A: 101 % of control

Q: What about the T/C (dose: 15.75 mg/kg/injection, schedule: Q01DX007 (ip), vehicle: other) of the same molecule?
A: 78 % of control

Q: What about the T/C (dose: 25.0 mg/kg/injection, schedule: Q01DX007 (ip), vehicle: other) of the same molecule?
A: 85 % of control

Q: What about the T/C (dose: 25.0 mg/kg/injection, schedule: Q#A X014 (ip), vehicle: other) of the same molecule?
A: 68 % of control

Q: And the T/C (dose: 31.5 mg/kg/injection, schedule: Q01DX007 (ip), vehicle: carboxymethylcellulose (CMC))?
A: 109 % of control

Q: What about the T/C (dose: 31.5 mg/kg/injection, schedule: Q01DX007 (ip), vehicle: other) of the same molecule?
A: 69 % of control

Q: What about the T/C (dose: 31.5 mg/kg/injection, schedule: Q01DX007 (ip), vehicle: water) of the same molecule?
A: 43 % of control

Q: What about the T/C (dose: 50.0 mg/kg/injection, schedule: Q01DX007 (ip), vehicle: other) of the same molecule?
A: 70 % of control

Q: And the T/C (dose: 50.0 mg/kg/injection, schedule: Q#A X014 (ip), vehicle: other)?
A: 38 % of control

Q: What about the T/C (dose: 50.4 mg/kg/injection, schedule: Q01DX007 (ip), vehicle: other) of the same molecule?
A: 84 % of control

Q: What about the T/C (dose: 63.0 mg/kg/injection, schedule: Q01DX007 (ip), vehicle: carboxymethylcellulose (CMC)) of the same molecule?
A: 58 % of control

Q: And the T/C (dose: 63.0 mg/kg/injection, schedule: Q01DX007 (ip), vehicle: other)?
A: 54 % of control and 60 % of control

Q: What about the T/C (dose: 63.0 mg/kg/injection, schedule: Q01DX007 (ip), vehicle: water) of the same molecule?
A: 57 % of control

Q: What about the T/C (dose: 84.0 mg/kg/injection, schedule: Q01DX007 (ip), vehicle: other) of the same molecule?
A: 63 % of control

Q: What about the T/C (dose: 94.5 mg/kg/injection, schedule: Q01DX007 (ip), vehicle: carboxymethylcellulose (CMC)) of the same molecule?
A: 54 % of control

Q: And the T/C (dose: 94.5 mg/kg/injection, schedule: Q01DX007 (ip), vehicle: water)?
A: 15 % of control

Q: What about the T/C (dose: 100.0 mg/kg/injection, schedule: Q01DX007 (ip), vehicle: other) of the same molecule?
A: 95 % of control and 116 % of control

Q: What about the T/C (dose: 100.0 mg/kg/injection, schedule: Q#A X014 (ip), vehicle: other) of the same molecule?
A: 64 % of control

Q: And the T/C (dose: 126.0 mg/kg/injection, schedule: Q01DX007 (ip), vehicle: carboxymethylcellulose (CMC))?
A: 39 % of control

Q: And the T/C (dose: 126.0 mg/kg/injection, schedule: Q01DX007 (ip), vehicle: other)?
A: 33 % of control

Q: What about the T/C (dose: 126.0 mg/kg/injection, schedule: Q01DX007 (ip), vehicle: water) of the same molecule?
A: 18 % of control

Q: What about the T/C (dose: 200.0 mg/kg/injection, schedule: Q01DX007 (ip), vehicle: other) of the same molecule?
A: 70 % of control

Q: And the T/C (dose: 400.0 mg/kg/injection, schedule: Q01DX007 (ip), vehicle: other)?
A: 52 % of control

Q: With `CNCc1ccccc1` as the molecule, how does the T/C (dose: 146.5 mg/kg/injection, schedule: Q01DX007 (ip), vehicle: carboxymethylcellulose (CMC)) read?
A: 91 % of control

Q: With `CCOc1ccc2c(c1)CC[C@@H]1[C@@H]2CC[C@@]2(C)[C@H]1CC[C@]2(C)O` as the molecule, how does the T/C (dose: 0.5 mg/kg/injection, schedule: Q#A X014 (sc), vehicle: steriod suspending solution) read?
A: 92 % of control

Q: What about the T/C (dose: 5.0 mg/kg/injection, schedule: Q#A X014 (sc), vehicle: steriod suspending solution) of the same molecule?
A: 79 % of control

Q: What about the T/C (dose: 50.0 mg/kg/injection, schedule: Q#A X014 (sc), vehicle: steriod suspending solution) of the same molecule?
A: 72 % of control

Q: `O=CNc1c(Cl)c(Cl)c2c(c1Cl)Cc1cc(Cl)ccc1-2` was tested. Which T/C (dose: 5.0 mg/kg/injection, schedule: Q01DX007 (ip), vehicle: carboxymethylcellulose (CMC)) did it give?
A: 70 % of control

Q: And the T/C (dose: 15.0 mg/kg/injection, schedule: Q01DX007 (ip), vehicle: carboxymethylcellulose (CMC))?
A: 60 % of control

Q: And the T/C (dose: 30.0 mg/kg/injection, schedule: Q01DX007 (ip), vehicle: carboxymethylcellulose (CMC))?
A: 34 % of control

Q: What about the T/C (dose: 49.0 mg/kg/injection, schedule: Q01DX007 (ip), vehicle: carboxymethylcellulose (CMC)) of the same molecule?
A: 63 % of control

Q: And the T/C (dose: 73.0 mg/kg/injection, schedule: Q01DX007 (ip), vehicle: carboxymethylcellulose (CMC))?
A: 64 % of control

Q: And the T/C (dose: 110.0 mg/kg/injection, schedule: Q01DX007 (ip), vehicle: carboxymethylcellulose (CMC))?
A: 51 % of control

Q: And the T/C (dose: 165.0 mg/kg/injection, schedule: Q01DX007 (ip), vehicle: carboxymethylcellulose (CMC))?
A: 5 % of control

Q: Which T/C (dose: 2.5 mg/kg/injection, schedule: Q#A X014 (ip), vehicle: saline) does the source give for `COC1C(OC(=O)/C=C/C=C/C=C/C=C/C(=O)O)CCC2(CO2)C1C1(C)OC1CC=C(C)C` (stereo not given) here?
A: 70 % of control

Q: What about the T/C (dose: 5.0 mg/kg/injection, schedule: Q#A X014 (ip), vehicle: methylcellulose (MC)) of the same molecule?
A: 76 % of control

Q: What about the T/C (dose: 5.0 mg/kg/injection, schedule: Q#A X014 (ip), vehicle: saline) of the same molecule?
A: 54 % of control

Q: And the T/C (dose: 6.0 mg/kg/injection, schedule: Q01DX007 (ip), vehicle: carboxymethylcellulose (CMC))?
A: 62 % of control

Q: What about the T/C (dose: 6.3 mg/kg/injection, schedule: Q01DX007 (ip), vehicle: carboxymethylcellulose (CMC)) of the same molecule?
A: 58 % of control

Q: What about the T/C (dose: 10.0 mg/kg/injection, schedule: Q#A X014 (ip), vehicle: methylcellulose (MC)) of the same molecule?
A: 50 % of control

Q: What about the T/C (dose: 10.0 mg/kg/injection, schedule: Q#A X014 (ip), vehicle: saline) of the same molecule?
A: 58 % of control

Q: What about the T/C (dose: 12.0 mg/kg/injection, schedule: Q01DX007 (ip), vehicle: carboxymethylcellulose (CMC)) of the same molecule?
A: 60 % of control

Q: What about the T/C (dose: 12.5 mg/kg/injection, schedule: Q01DX007 (ip), vehicle: carboxymethylcellulose (CMC)) of the same molecule?
A: 84 % of control

Q: And the T/C (dose: 20.0 mg/kg/injection, schedule: Q#A X014 (ip), vehicle: methylcellulose (MC))?
A: 50 % of control

Q: And the T/C (dose: 20.0 mg/kg/injection, schedule: Q#A X014 (ip), vehicle: saline)?
A: 51 % of control

Q: What about the T/C (dose: 25.0 mg/kg/injection, schedule: Q01DX007 (ip), vehicle: carboxymethylcellulose (CMC)) of the same molecule?
A: 41 % of control and 53 % of control and 63 % of control

Q: What about the T/C (dose: 40.0 mg/kg/injection, schedule: Q#A X014 (ip), vehicle: methylcellulose (MC)) of the same molecule?
A: 38 % of control

Q: What about the T/C (dose: 40.0 mg/kg/injection, schedule: Q#A X014 (ip), vehicle: saline) of the same molecule?
A: 39 % of control

Q: And the T/C (dose: 80.0 mg/kg/injection, schedule: Q#A X014 (ip), vehicle: methylcellulose (MC))?
A: 19 % of control

Q: And the T/C (dose: 200.0 mg/kg/injection, schedule: Q01DX007 (ip), vehicle: carboxymethylcellulose (CMC))?
A: 17 % of control and 36 % of control

Q: Which T/C (dose: 90.0 mg/kg/injection, schedule: Q01DX007 (ip), vehicle: carboxymethylcellulose (CMC)) does the source give for `CC(C)COC(=O)C1(N)CCCC1` here?
A: 80 % of control

Q: And the T/C (dose: 135.0 mg/kg/injection, schedule: Q01DX007 (ip), vehicle: carboxymethylcellulose (CMC))?
A: 44 % of control

Q: What about the T/C (dose: 188.0 mg/kg/injection, schedule: Q01DX007 (ip), vehicle: saline) of the same molecule?
A: 14 % of control

Q: And the T/C (dose: 202.0 mg/kg/injection, schedule: Q01DX007 (ip), vehicle: carboxymethylcellulose (CMC))?
A: 49 % of control

Q: And the T/C (dose: 303.0 mg/kg/injection, schedule: Q01DX007 (ip), vehicle: carboxymethylcellulose (CMC))?
A: 18 % of control

Q: With `N#[N+]c1nc2ncnc(N)c2[nH]1` as the molecule, how does the T/C (dose: 6.25 mg/kg/injection, schedule: Q#A X014 (ip), vehicle: saline) read?
A: 66 % of control

Q: And the T/C (dose: 12.5 mg/kg/injection, schedule: Q#A X014 (ip), vehicle: saline)?
A: 65 % of control

Q: What about the T/C (dose: 25.0 mg/kg/injection, schedule: Q#A X014 (ip), vehicle: saline) of the same molecule?
A: 86 % of control
